Consider 1 compound from patent publication US20230364051A1, “FORMULATIONS AND METHODS FOR IMPROVING AVIAN HEALTH” (CORNELL UNIVERSITY, priority 2022, published 2023).

Each structure is given as a SMILES string. Marks after values point to notes of the source that are not given here.

In assay [1] the test system is Hepcidin. Kind of assay: Liver gene expression by RT-qPCR: hepcidin. The settings on record: genistein exposure vs no injection, p < 0.05. It counts as in vivo, Gallus gallus. The method, then:
(§1) Cornish-cross fertile broiler eggs (Gallus gallus, n = 39) were obtained from a commercial hatchery (Moyer’s chicks, Quakertown, PA, USA). The eggs were incubated under optimal conditions at the Cornell University Animal Science Poultry Farm Incubator [18]. All animal protocols were approved by Cornell University Institutional Animal Care and Use committee (IACUC #2020-0077). At day 17 of embryonic incubation, eggs containing viable embryos were weighed and divided into 5 groups, with all treatment groups assigned eggs of similar weight frequency distribution. Each group was then injected with the specific solution (1 mL per egg) with a 21-gauge needle into the amniotic fluid. Treatments in powder form were separately diluted in DI H2O. […]
(§2) Total RNA was extracted from 30 mg of the proximal duodenal (n=6) or liver tissues (n=6) using Qiagen RNeasy Mini Kit (Qiagen Inc., Valencia, CA) according to the manufacturer’s protocol. […] RNA was quantified by absorbance at 260-280 nm using a NanoDrop 2000 (ThermoFisher Scientific, Waltham, MA). […]
(§3) As previously described. cDNA was generated using a 20 uL reverse transcriptase (RT) reaction in a BioRad C1000 touch thermocycler using the Improm-II Reverse Transcriptase Kit (Catalog #A1250; Promega, Madison, WI, USA). […] Genomic DNA contamination was assessed using a RT-PCR assay for the reference of genes samples. […]

Another assay relates to DMT1. The assay is described as follows: Duodenal gene expression by RT-qPCR: DMT1. The settings on record: 1.25 wt. % genistein vs no injection and H2O controls, p < 0.05; duodenum. It counts as in vivo, Gallus gallus. How it is done:
as §1, §2, §3
Background: In qPCR the cycle at which signal appears reflects the starting amount.

The nature of assay [2]: Blood hemoglobin (QuantiChrom Hemoglobin Assay) at hatch after intraamniotic administration. It counts as in vivo, Gallus gallus. The settings on record: for Average Hb: day 17, blood at hatch. How it is done:
Cornish-cross fertile broiler eggs (Gallus gallus, n = 39) were obtained from a commercial hatchery (Moyer’s chicks, Quakertown, PA, USA). The eggs were incubated under optimal conditions at the Cornell University Animal Science Poultry Farm Incubator [18]. […] Each group was then injected with the specific solution (1 mL per egg) with a 21-gauge needle into the amniotic fluid. Treatments in powder form were separately diluted in DI H2O. […] After injection, the injection holes were sealed with cellophane tape and the eggs were placed in hatching baskets such that each treatment was equally represented at each incubator location. Immediately upon hatch (day 21), blood was taken for hemoglobin determination and all chicks were then euthanized by CO2 exposure. The small intestine, pectoral muscle, cecum, and liver were collected, immediately frozen in liquid nitrogen, and then stored in a -80° C. freezer until analysis.
Blood was collected using micro-hematocrit heparinized capillary tubes (Fisher Scientific, Waltham, MA, USA). Blood Hb concentrations were determined spectrophotometrically using the QuantiChromTM Hemoglobin Assay (DIHB-250, BioAssay Systems, Hayward, CA, USA) following the kit manufacturer’s instructions.

Assay [3] can be described thus: Pectoral muscle glycogen analysis after intraamniotic administration. Format: in vivo, Gallus gallus. The conditions noted are these: for Average Glycogen: day 17, pectoral muscle at hatch. The method, then: Cornish-cross fertile broiler eggs (Gallus gallus, n = 39) were obtained from a commercial hatchery (Moyer’s chicks, Quakertown, PA, USA). The eggs were incubated under optimal conditions at the Cornell University Animal Science Poultry Farm Incubator [18]. All animal protocols were approved by Cornell University Institutional Animal Care and Use committee (IACUC #2020-0077). At day 17 of embryonic incubation, eggs containing viable embryos were weighed and divided into 5 groups, with all treatment groups assigned eggs of similar weight frequency distribution. Each group was then injected with the specific solution (1 mL per egg) with a 21-gauge needle into the amniotic fluid. Treatments in powder form were separately diluted in DI H2O. Two treatment groups (1.25, 2.5 wt. %), two controls (H2O and non-injected), and a positive control (5 wt. % inulin) were administered. After injection, the injection holes were sealed with cellophane tape and the eggs were placed in hatching baskets such that each treatment was equally represented at each incubator location. Immediately upon hatch (day 21), blood was taken for hemoglobin determination and all chicks were then euthanized by CO2 exposure. The small intestine, pectoral muscle, cecum, and liver were collected, immediately frozen in liquid nitrogen, and then stored in a -80° C. freezer until analysis.
Glycogen analysis was obtained from pectoralis muscle as previously described. Briefly, the frozen pectoral muscle samples were homogenized in 8 wt. % perchloric acid. Samples were then centrifuged at 12,000 × g for 15 minutes. The supernatant was removed, and 1.0 mL of petroleum ether was added to each tube. After mixing, the petroleum ether fraction was removed and samples from the bottom layer were transferred to a 96-well plate containing 300 µL of color reagent. All samples were read at a wavelength of 450 nm in an ELISA reader and the amount of glycogen was calculated according to a standard curve. The amount of glycogen present in pectoral sample was determined by multiplying the weight of the tissue by the amount of glycogen per 1 g of wet tissue.

The next assay relates to ZIP6. The assay is described as follows: Duodenal gene expression by RT-qPCR: ZIP6. It counts as in vivo, Gallus gallus. The conditions noted are these: 2.5 wt. % genistein vs all other treatment groups, p < 0.05; duodenum. The method, then:
as §1, §2, §3

A further assay deals with DcytB. The assay is described as follows: Duodenal gene expression by RT-qPCR: DcytB. It counts as in vivo, Gallus gallus. The settings on record: genistein treatment groups vs no injection, H2O and inulin, p < 0.05; duodenum. How it is done:
as §1, §2, §3

Assay [4] relates to hepcidin. The conditions noted are these: human hepatocytes; cited from earlier work.
[5] abbreviates: 1.25 wt. % genistein intraamniotic.
The mark [6] stands for this setting: 2.5 wt. % genistein intraamniotic.

Take `O=c1c(-c2ccc(O)cc2)coc2cc(O)cc(O)c12` [Genistein, genistein]: in the assay with Hepcidin [1], the “Gene expression of hepcidin” value is “significantly upregulated”. Also, in the assay with DMT1, the “Gene expression of DMT1” value is listed as “downregulated”. For the same compound, the “Average Hb” value in assay [2] (setting [5]) is on record as 14.98 ± 0.45 ^a g/dL; in assay [2] (setting [6]), 14.23 ± 0.79 ^ab g/dL. Moreover, the “Blood hemoglobin (Hb) levels vs controls” value in assay [2] (1.25 wt. % genistein vs No Injection, H2O and 5 wt. % inulin, p < 0.05) is listed as “significantly elevated”. The “Blood hemoglobin vs controls” value in assay [2] (2.5 wt. % genistein vs H2O and 5 wt. % inulin) is “significantly higher”. Besides, in assay [2] (2.5 wt. % genistein vs No Injection), the “Blood hemoglobin vs control” value is recorded as “higher”. Besides, the entries for the “Average Glycogen” value in assay [3] (setting [5]) and in assay [3] (setting [6]) were 0.008 ± 0.003 ^ab mg/g and 0.015 ± 0.004 ^a mg/g, respectively. Moreover, the “Average glycogen vs control” value in assay [3] (genistein treated groups vs no injection, p > 0.05) was “no significant difference”. Besides, the “Gene expression of ZIP6” value in the assay on ZIP6 is recorded as “significantly downregulated”. Further, the “Gene expression of DcytB” value with DcytB is given as “significantly downregulated”. In addition, in the assay with hepcidin [4], the “Hepcidin transcription levels and promoter activity” value is “increased”.
